Results reported in ChEMBL document CHEMBL3352360, “Two new spirooxindole alkaloids from rhizosphere strain Streptomyces sp. xzqh-9” (Bioorg Med Chem Lett, 2014).
Activity calls are given as the source filed them. No cut-off for these calls is given here.

Key:
[1] = test system: BaF3; test: Inhibition of Bcr-Abl (unknown origin) expressed in BaF3 cells at 30 uM; assay type: cell-based; conditions: Homo sapiens
[2] = target: L-lactate dehydrogenase (Homo sapiens) (UniProt V9HWB9); test: Inhibition of LDH (unknown origin) at 10 uM by biochemical assay
[3] = Antiproliferative activity against human BGC823 cells assessed as inhibition of cell proliferation at 10 to 100 uM; assay type: functional, BGC-823
[4] = test system: HepG2; test: Antiproliferative activity against human HepG2 cells assessed as inhibition of cell proliferation at 10 to 100 uM; assay type: functional
[5] = test system: A549; test: Antiproliferative activity against human A549 cells assessed as inhibition of cell proliferation at 10 to 100 uM; assay type: functional
[6] = Retention factor of the compound on TLC over silica gel; assay type: physicochemical
[7] = test system: MCF7; test: Antiproliferative activity against human MCF7 cells assessed as inhibition of cell proliferation at 10 to 100 uM; assay type: functional

| inhibition [2] | Rf [6] | SMILES | inhibition [1] | inhibition (INH) [3] | inhibition (INH) [4] | inhibition (INH) [5] | inhibition (INH) [7] |
| --- | --- | --- | --- | --- | --- | --- | --- |
| inactive | 0.67 | CC1=C(O)C(=O)C2=C(CCC2)[C@]12C(=O)N(C)c1ccccc12 | 15% | <10% | <10% | <10% | <10% |
| inactive | 0.8 | C[C@@H]1[C@@H](O)C(=O)C2=C(CCC2)[C@]12C(=O)N(C)c1ccccc12 | inactive | <10% | <10% | <10% | <10% |
